# According to PubChem BioAssay AID2060488 (Molecular Pharmacology Branch, DTP, NCI, 2025):
# System: 966289-007-R4-J1-PDC complex spheroid viability
# Assay: Anticancer human tumor 966289-007-R4-J1-PDC patient-derived pancreatic adenocarcinoma cell line growth inhibition [GQUAD]
# Conditions: for IC50: curve of first compound; for viability, T/C: stronger effect = lower value
# How it was run: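 Tumor cells were grown as complex spheroids with HUVEC endothelial cells and mesenchymal stem cells as stroma. G-quadruplex stabilizers were combined with targeted agents over half-log dilutions from near the clinical Cmax, or from 10 microM.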
# [1] = second compound 0.0316 µM, first compound 0.0316 µM
# [2] = second compound 0.0316 µM, first compound 0.1 µM
# [3] = second compound 0.0316 µM, first compound 0.316 µM
# [4] = second compound 0.0316 µM, first compound 1 µM
# [5] = second compound 0.0316 µM, first compound 3.16 µM
# [6] = second compound 0.0316 µM, first compound 10 µM
# [7] = second compound 0.1 µM, first compound 0.0316 µM
# [8] = second compound 0.1 µM, first compound 0.1 µM
# [9] = second compound 0.1 µM, first compound 0.316 µM
# [10] = second compound 0.1 µM, first compound 1 µM
# [11] = second compound 0.1 µM, first compound 3.16 µM
# [12] = second compound 0.1 µM, first compound 10 µM
# [13] = second compound 0.316 µM, first compound 0.0316 µM
# [14] = second compound 0.316 µM, first compound 0.1 µM
# [15] = second compound 0.316 µM, first compound 0.316 µM
# [16] = second compound 0.316 µM, first compound 1 µM
# [17] = second compound 0.316 µM, first compound 3.16 µM
# [18] = second compound 0.316 µM, first compound 10 µM
# [19] = second compound 1 µM, first compound 0.0316 µM
# [20] = second compound 1 µM, first compound 0.1 µM
# [21] = second compound 1 µM, first compound 0.316 µM
# [22] = second compound 1 µM, first compound 1 µM
# [23] = second compound 1 µM, first compound 3.16 µM
# [24] = second compound 1 µM, first compound 10 µM
# [25] = second compound 3.16 µM, first compound 0.0316 µM
# [26] = second compound 3.16 µM, first compound 0.1 µM
# [27] = second compound 3.16 µM, first compound 0.316 µM
# [28] = second compound 3.16 µM, first compound 1 µM
# [29] = second compound 3.16 µM, first compound 3.16 µM
# [30] = second compound 3.16 µM, first compound 10 µM
# [31] = second compound 10 µM, first compound 0.0316 µM
# [32] = second compound 10 µM, first compound 0.1 µM
# [33] = second compound 10 µM, first compound 0.316 µM
# [34] = second compound 10 µM, first compound 1 µM
# [35] = second compound 10 µM, first compound 3.16 µM
# [36] = second compound 10 µM, first compound 10 µM
# 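Also: spheroids exposed to the agents for seven days before readout.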
# 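For viability, T/C in this document: percent viability relative to DMSO vehicle control wells taken as 100%.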
structure (smiles),measurement,setting,value
COc1cc(C2c3cc4c(cc3C(OC3OC5COC(C)OC5C(O)C3O)C3COC(=O)C23)OCO4)cc(OC)c1O (stereo not drawn) + Cc1cnc(CNC(=O)c2c(=O)c3ccc(N4CCCN(C)CC4)nc3n3c2sc2ccccc23)cn1,IC50,second compound 0.0316 µM,110 nM
same,IC50,second compound 0.1 µM,< 31.6 nM
same,IC50,second compound 0.316 µM,< 31.6 nM
same,IC50,second compound 1 µM,< 31.6 nM
same,IC50,second compound 3.16 µM,< 31.6 nM
same,IC50,second compound 10 µM,< 31.6 nM
same,"viability, T/C",[1],88%
same,"viability, T/C",[2],53.8%
same,"viability, T/C",[3],10.1%
same,"viability, T/C",[4],2.94%
same,"viability, T/C",[5],2.18%
same,"viability, T/C",[6],0.59%
same,"viability, T/C",[7],29.7%
same,"viability, T/C",[8],19.7%
same,"viability, T/C",[9],8.71%
same,"viability, T/C",[10],3.16%
same,"viability, T/C",[11],1.36%
same,"viability, T/C",[12],0.71%
same,"viability, T/C",[13],10.3%
same,"viability, T/C",[14],9.3%
same,"viability, T/C",[15],5.22%
same,"viability, T/C",[16],3.25%
same,"viability, T/C",[17],1.25%
same,"viability, T/C",[18],1.38%
same,"viability, T/C",[19],6.49%
same,"viability, T/C",[20],6.05%
same,"viability, T/C",[21],4.38%
same,"viability, T/C",[22],2.66%
same,"viability, T/C",[23],1.27%
same,"viability, T/C",[24],0.48%
same,"viability, T/C",[25],4.76%
same,"viability, T/C",[26],4.96%
same,"viability, T/C",[27],2.85%
same,"viability, T/C",[28],0.6%
same,"viability, T/C",[29],0.46%
same,"viability, T/C",[30],0.09%
same,"viability, T/C",[31],0.03%
same,"viability, T/C",[32],0.07%
same,"viability, T/C",[33],0.09%
same,"viability, T/C",[34],0.06%
same,"viability, T/C",[35],0.12%
same,"viability, T/C",[36],0.12%
CC1COCCN1c1cc(C2(O)CC3CCC(C2)O3)c2cnn(-c3ccn[nH]3)c2n1 (stereo not drawn) + Cc1cnc(CNC(=O)c2c(=O)c3ccc(N4CCCN(C)CC4)nc3n3c2sc2ccccc23)cn1,IC50,second compound 0.0316 µM,< 31.6 nM
same,IC50,second compound 0.1 µM,< 31.6 nM
same,IC50,second compound 0.316 µM,< 31.6 nM
same,IC50,second compound 1 µM,< 31.6 nM
same,IC50,second compound 3.16 µM,< 31.6 nM
same,IC50,second compound 10 µM,< 31.6 nM
same,"viability, T/C",[1],17.9%
same,"viability, T/C",[2],6.32%
same,"viability, T/C",[3],6.87%
same,"viability, T/C",[4],4.01%
same,"viability, T/C",[5],4.28%
same,"viability, T/C",[6],3.82%
same,"viability, T/C",[7],8.59%
same,"viability, T/C",[8],4.79%
same,"viability, T/C",[9],5.61%
same,"viability, T/C",[10],4.59%
same,"viability, T/C",[11],3.77%
same,"viability, T/C",[12],3.82%
same,"viability, T/C",[13],6.96%
same,"viability, T/C",[14],6.64%
same,"viability, T/C",[15],7.05%
same,"viability, T/C",[16],5.35%
same,"viability, T/C",[17],4.24%
same,"viability, T/C",[18],3.79%
same,"viability, T/C",[19],5.69%
same,"viability, T/C",[20],6.03%
same,"viability, T/C",[21],7.24%
same,"viability, T/C",[22],5.15%
same,"viability, T/C",[23],5.42%
same,"viability, T/C",[24],4.18%
same,"viability, T/C",[25],4.9%
same,"viability, T/C",[26],5.03%
same,"viability, T/C",[27],5.23%
same,"viability, T/C",[28],5.64%
same,"viability, T/C",[29],5.02%
same,"viability, T/C",[30],3.38%
same,"viability, T/C",[31],0.04%
same,"viability, T/C",[32],0.08%
same,"viability, T/C",[33],0.11%
same,"viability, T/C",[34],0.07%
same,"viability, T/C",[35],0.15%
same,"viability, T/C",[36],0.14%
CC1COCCN1c1cc(-c2ccnn2C)c2ccnc(-c3ccn[nH]3)c2n1 (stereo not drawn) + Cc1[nH]c2ccc(F)cc2c1-c1nc2c3cccnc3c3ncccc3c2[nH]1,IC50,second compound 0.0316 µM,170 nM
same,IC50,second compound 0.1 µM,161 nM
same,IC50,second compound 0.316 µM,172 nM
same,IC50,second compound 1 µM,177 nM
same,IC50,second compound 3.16 µM,79.9 nM
same,IC50,second compound 10 µM,69.3 nM
same,"viability, T/C",[1],114%
same,"viability, T/C",[2],77.8%
same,"viability, T/C",[3],17.3%
same,"viability, T/C",[4],5.52%
same,"viability, T/C",[5],4.65%
same,"viability, T/C",[6],3.39%
same,"viability, T/C",[7],115%
same,"viability, T/C",[8],73.2%
same,"viability, T/C",[9],17%
same,"viability, T/C",[10],6.08%
same,"viability, T/C",[11],4.45%
same,"viability, T/C",[12],3%
same,"viability, T/C",[13],110%
same,"viability, T/C",[14],80.3%
same,"viability, T/C",[15],15.6%
same,"viability, T/C",[16],7.15%
same,"viability, T/C",[17],4.49%
same,"viability, T/C",[18],3.06%
same,"viability, T/C",[19],105%
same,"viability, T/C",[20],78.1%
same,"viability, T/C",[21],21.1%
same,"viability, T/C",[22],8.54%
same,"viability, T/C",[23],5.16%
same,"viability, T/C",[24],2.92%
same,"viability, T/C",[25],94.4%
same,"viability, T/C",[26],39.3%
same,"viability, T/C",[27],8.27%
same,"viability, T/C",[28],7.24%
same,"viability, T/C",[29],5.24%
same,"viability, T/C",[30],4.9%
same,"viability, T/C",[31],96.4%
same,"viability, T/C",[32],28.4%
same,"viability, T/C",[33],5.29%
same,"viability, T/C",[34],5.42%
same,"viability, T/C",[35],5.48%
same,"viability, T/C",[36],5.5%
CCc1c2c(nc3ccc(O)cc13)-c1cc3c(c(=O)n1C2)COC(=O)[C@]3(O)CC + CN(C)c1ccc(Nc2c3ccc(NC(=O)CCN4CCCC4)cc3nc3cc(NC(=O)CCN4CCCC4)ccc23)cc1,IC50,second compound 0.0316 µM,< 0.999 nM
same,IC50,second compound 0.1 µM,< 0.999 nM
same,IC50,second compound 0.316 µM,< 0.999 nM
same,IC50,second compound 1 µM,< 0.999 nM
same,IC50,second compound 3.16 µM,< 0.999 nM
same,IC50,second compound 10 µM,< 0.999 nM
same,"viability, T/C","second compound 0.0316 µM, first compound 0.000999 µM",21.2%
same,"viability, T/C","second compound 0.0316 µM, first compound 0.00316 µM",1.29%
same,"viability, T/C","second compound 0.0316 µM, first compound 0.00999 µM",0.59%
same,"viability, T/C",[1],0.58%
same,"viability, T/C","second compound 0.0316 µM, first compound 0.0999 µM",0.44%
same,"viability, T/C",[3],0.43%
same,"viability, T/C","second compound 0.1 µM, first compound 0.000999 µM",22.3%
same,"viability, T/C","second compound 0.1 µM, first compound 0.00316 µM",1.11%
same,"viability, T/C","second compound 0.1 µM, first compound 0.00999 µM",0.72%
same,"viability, T/C",[7],1.03%
same,"viability, T/C","second compound 0.1 µM, first compound 0.0999 µM",0.43%
same,"viability, T/C",[9],0.56%
same,"viability, T/C","second compound 0.316 µM, first compound 0.000999 µM",18.6%
same,"viability, T/C","second compound 0.316 µM, first compound 0.00316 µM",1.04%
same,"viability, T/C","second compound 0.316 µM, first compound 0.00999 µM",1.15%
same,"viability, T/C",[13],0.5%
same,"viability, T/C","second compound 0.316 µM, first compound 0.0999 µM",0.36%
same,"viability, T/C",[15],0.44%
same,"viability, T/C","second compound 1 µM, first compound 0.000999 µM",22.2%
same,"viability, T/C","second compound 1 µM, first compound 0.00316 µM",1.12%
same,"viability, T/C","second compound 1 µM, first compound 0.00999 µM",0.68%
same,"viability, T/C",[19],0.53%
same,"viability, T/C","second compound 1 µM, first compound 0.0999 µM",1.55%
same,"viability, T/C",[21],0.4%
same,"viability, T/C","second compound 3.16 µM, first compound 0.000999 µM",17.7%
same,"viability, T/C","second compound 3.16 µM, first compound 0.00316 µM",1.42%
same,"viability, T/C","second compound 3.16 µM, first compound 0.00999 µM",0.73%
same,"viability, T/C",[25],0.58%
same,"viability, T/C","second compound 3.16 µM, first compound 0.0999 µM",0.38%
same,"viability, T/C",[27],0.97%
same,"viability, T/C","second compound 10 µM, first compound 0.000999 µM",9.4%
same,"viability, T/C","second compound 10 µM, first compound 0.00316 µM",0.87%
same,"viability, T/C","second compound 10 µM, first compound 0.00999 µM",0.74%
same,"viability, T/C",[31],0.39%
same,"viability, T/C","second compound 10 µM, first compound 0.0999 µM",0.62%
same,"viability, T/C",[33],0.22%
